Here are results for six molecules from paper PMC11477875, “Ecotoxicity and Mutagenicity Assessment of Novel Antifungal Agents VT-1161 and T-2307” (Molecules, 2024).

Values after ≈ are worked out from the molar mass of the structure shown. Like-named read-outs stand apart in the source and are kept apart here.

Series [1] relates to D. magna. Description: Literature D. magna toxicity data used for hazard ranking. It counts as in vivo, Daphnia magna. As to conditions: for Hazard Ranking: GHS, from literature EC50 D. magna 48 h. An excerpt:
(§1) The hazard ranking of antifungal compounds is crucial for understanding their environmental impact and guiding regulatory decisions. This study utilizes data from existing literature to classify the effective concentrations (EC50) of various antifungal compounds according to the Globally Harmonized System of Classification and Labelling of Chemicals (GHS).
(§2) Furthermore, multiple fungicide compounds were classified according to the Globally Harmonized System of Classification and Labeling of Chemicals (GHS) to compare the hazard ranking of substances currently on the market and the two substances of this study.

The subject of series [2] is D. magna. The settings on record: cited from earlier work.
The test system of series [3] is Green algae. As to conditions: cited from earlier work.
In series [4] the test system is R. subcapitata. As to the kind of experiment: Literature R. subcapitata toxicity data used for hazard ranking. It counts as cell-based, Raphidocelis subcapitata. As to conditions: GHS, from literature EC50 R. subcapitata 72 h.
Source text: as §1, §2

Series [5] relates to Green algae. Description: Literature green algae toxicity data used for hazard ranking. It counts as cell-based. As to conditions: GHS.
Source text: as §1, §2

Series [6] deals with R. subcapitata. As to conditions: cited from earlier work.
A further series concerns Daphnia magna. Description: Daphnia magna acute immobilization test (this study). Format: in vivo. As to conditions: for immobility: 50 mg L^−1; for Hazard Ranking: GHS, from EC50 D. magna 48 h, this study. As for the experimental part: The immobilization tests with D. magna were conducted following ISO guidelines using an in-house culture at the Hygiene Department at the UNINA. Organisms under 24 h old were exposed to concentrations of 1.56, 3.12, 6.25, 12.50, 25, and 50 mg L^−1 and to a negative control of freshwater media. Each concentration had four replicates containing five organisms each. The exposure was conducted at a temperature of 20 ± 1 °C and under continuous illumination of approx. 1000 lux. Immobilization was assessed at 24 and 48 h after exposure using a stereomicroscope.
(§3) Data were analyzed with R Studio for Windows (Version 2023.06.0). The effective concentrations causing 50% of the response on the organisms A. fischeri, R. subcapitata, and D. magna were estimated by fitting on dose–response models using the extension package “drc” [49]. For the data analysis of R. subcapitata and A. fischeri tests, the measurements were normalized to the control to estimate an inhibition percentage.

In a further series the test system is Raphidocelis subcapitata. Description: Raphidocelis subcapitata growth inhibition test (this study). As to conditions: for Hazard Ranking: GHS, from EC50 R. subcapitata 72 h, this study. Format: cell-based. As for the experimental part: The growth inhibition test with R. subcapitata was conducted following ISO guidelines using an in-house culture at the Hygiene Department at the UNINA. Algal cultures were incubated in Erlenmeyer flasks at 20 ± 1 °C on a shaker at 100 rpm and under continuous daylight fluorescent tube illumination of approximately 6300 lux with […]. The initial inoculum concentration was set at 10^4 cells mL^−1, exposed to the concentrations of 1.56, 3.12, 6.25, 12.50, 25, and 50 mg L^−1 and to a negative control of freshwater media. Six replicates were set up for both the control samples and the treatments and were maintained under the same conditions as the algal culture for 72 h.
as §3

A further series deals with Aliivibrio fischeri. As to the kind of experiment: Aliivibrio fischeri luminescence inhibition test (this study). It counts as cell-based. As for the experimental part: The luminescence inhibition test was performed on Allivibrio fischeri (strain NRRL-B-11177), purchased from WaterTox STD (ECOtest S.L., Valencia, Spain), and performed according to [46]. The luminescence was measured using a Microtox luminometer Model 500, (AZUR Environmental, Carlsbad, CA, USA) equipped with a cell incubated at a constant temperature of 15 ± 1 °C, and readings were taken after 30 min of exposure at a wavelength of 490 nm. The Osmotic Adjustment Solution was added to the media to adapt the marine bacterium to freshwater. […] Data were analyzed with R Studio for Windows (Version 2023.06.0). The effective concentrations causing 50% of the response on the organisms A. fischeri, R. subcapitata, and D. magna were estimated by fitting on dose–response models using the extension package “drc” [49]. For the data analysis of R. subcapitata and A. fischeri tests, the measurements were normalized to the control to estimate an inhibition percentage.

Series [7] has as its system Salmonella typhimurium strain TA100. As to the kind of experiment: Salmonella typhimurium mutagenicity assay. It counts as cell-based. As to conditions: for mutagenicity (result in words): TA100, 1.56 and 50 mg L^−1; for mutagenicity ratio: TA100, both concentrations 1.56 and 50 mg L^−1, mutagenic if ratio 2 or greater. As for the experimental part: The mutagenicity in Salmonella typhimurium strain TA100 was assessed by observing the potential mutations that would allow the bacteria to grow without needing histidine (his-), following the protocol. For the assay, a kit obtained from ECOTOX LDS (Milan, Italy) was used to perform the test. Two exposure concentrations of 1.56 and 50 mg L^−1 of each compound were used and bromocresol purple was added as a pH indicator. Distilled water served as the negative control and sodium azide as the positive control for TA100 without S9 ([…]).
The plates were incubated at 37 °C for 3 to 5 days and sealed in hermetic plastic bags to avoid contamination. […] Wells that remained purple indicated a negative result (non-mutagenic compound).
For the test organism S. typhimurium, results were expressed as the mutagenicity ratio. This was calculated by dividing the number of revertants (his+) in the treatments by the number of naturally occurring (negative control). The treatments were considered mutagenic if the mutagenicity ratio was 2 or greater.

The subject of series [8] is A. fischeri, R. subcapitata, and D. magna. Description: Summary over the species tested (A. fischeri, R. subcapitata, D. magna) and GHS classification. As for the experimental part: as §3, §2

In the case of `OC(Cn1cncn1)(Cn1cncn1)c1ccc(F)cc1F` [Fluconazole], the “GHS hazard category (in words)” value in the series with D. magna [1] (from literature EC50 D. magna, EC50 > 100 mg L^−1) is listed as “not harmful”. The EC50 is 0.002766 µg/mL (≈ 0.00903 µM) in the series with D. magna [2] (48 h ref 30), 530 µg/mL (≈ 1730 µM) with D. magna [2] (48 h ref 37), 0.001162 µg/mL (≈ 0.00379 µM) in the series on Green algae [3] (96 h ref 30) and 55.4 µg/mL (≈ 181 µM) in the series with Green algae [3] (96 h ref 37).

`CC(=O)N1CCN(c2ccc(OCC3COC(Cn4ccnc4)(c4ccc(Cl)cc4Cl)O3)cc2)CC1` (centres unmarked) [Ketoconazole]: the “Hazard Ranking” value with D. magna [1] is “*** (Toxic (<1 mg L^−1 ≤ 10 mg L^−1))”; with R. subcapitata [4] it was “**** (Very toxic (≤1 mg L^−1))”; with Green algae [5] (from literature EC50 green algae 72 h) it was “**** (Very toxic (≤1 mg L^−1))”; in the series on Green algae [5] (from literature EC50 green algae 96 h), “*** (Toxic (<1 mg L^−1 ≤ 10 mg L^−1))”. Also, the EC50 in the series with D. magna [2] (48 h ref 30) was 2.39 µg/mL (≈ 4.5 µM); in the series on D. magna [2] (48 h ref 34) it was 6.57 µg/mL (≈ 12.4 µM); with D. magna [2] (48 h ref 38) it was 6.57 µg/mL (≈ 12.4 µM); in the series with D. magna [2] (48 h ref 39, listed as ketoconazole), 1.51 µg/mL (≈ 2.84 µM); with D. magna [2] (48 h ref 39), 1.5 µg/mL (≈ 2.82 µM); in the series with R. subcapitata [6] (72 h ref 36), 0.28 µg/mL (≈ 0.527 µM). Besides, the EC50 was 0.3 µg/mL (≈ 0.565 µM) with R. subcapitata [6] (72 h ref 40), 0.28 µg/mL (≈ 0.527 µM) in the series with Green algae [3] (72 h ref 38) and 4.36 µg/mL (≈ 8.2 µM) in the series on Green algae [3] (96 h ref 30).

On to `N=C(N)c1ccc(OCCCC2CCN(CCCOc3ccc(C(=N)N)cc3)CC2)cc1` [T-2307], for which, in the series on Daphnia magna (D. magna, 48 h), the “EC50 (effective concentration causing 50% of immobility)” value turned out to be 17.93 µg/mL and the immobility is given as 90%. The “Hazard Ranking” value in the series with Daphnia magna is “** (Harmful: (<10 mg L^−1 ≤ 100 mg L^−1))”. Also, in the series on Raphidocelis subcapitata, the “Hazard Ranking” value is “** (Harmful: (<10 mg L^−1 ≤ 100 mg L^−1))”. Besides, the “EC50 (effective concentration causing 50% growth inhibition)” value with Raphidocelis subcapitata (R. subcapitata, 72 h) is 14.34 µg/mL (≈ 32.8 µM). In addition, the growth inhibition result with Raphidocelis subcapitata (R. subcapitata, 72 h, 50 mg L^−1) is reported as “around 82%”. Moreover, the “EC50 (effective concentration causing 50% luminescence inhibition)” value with Aliivibrio fischeri (A. fischeri, 30 min) came to 22.58 µg/mL (≈ 51.6 µM). Moreover, the luminescence inhibition with Aliivibrio fischeri (A. fischeri, 30 min, 50 mg L^−1) is recorded as ~75%. In series [7], the “mutagenicity (result in words)” value is reported as “non-positive mutagenicity” and the mutagenicity ratio is given as < 2.

Regarding `CC(C)(C)C(O)(CCc1ccc(Cl)cc1)Cn1cncn1` (centres unmarked) [Tebuconazole], the “Hazard Ranking” value with D. magna [1] and in the series on R. subcapitata [4] was “*** (Toxic (<1 mg L^−1 ≤ 10 mg L^−1))” each time. In addition, the results for the EC50 with D. magna [2] (48 h ref 41), in the series with D. magna [2] (48 h ref 42) and in the series on R. subcapitata [6] (72 h ref 42) were 2.37 µg/mL (≈ 7.7 µM), 6.75 µg/mL (≈ 21.9 µM) and 2.09 µg/mL (≈ 6.79 µM), respectively.

As for `O[C@@](Cn1cnnn1)(c1ccc(F)cc1F)C(F)(F)c1ccc(-c2ccc(OCC(F)(F)F)cc2)cn1` [VT-1161, oteseconazole], the immobility in the series with Daphnia magna (D. magna, 48 h) was 100%. The EC50 is 20.9 µg/mL (≈ 39.7 µM) with Daphnia magna (Daphnia magna, read-out: EC50 (effective concentration causing 50% of immobility), D. magna, 48 h); 27.9 µg/mL (≈ 52.9 µM) with Raphidocelis subcapitata (Raphidocelis subcapitata, read-out: EC50 (effective concentration causing 50% growth inhibition), R. subcapitata, 72 h); 22.4 µg/mL (≈ 42.5 µM) in the series with Aliivibrio fischeri (Aliivibrio fischeri, 0.5 h, read-out: EC50 (effective concentration causing 50% luminescence inhibition), A. fischeri, 30 min); 20.9 to 27.9 µg/mL (≈ 39.7 to 52.9 µM) in [8] (A. fischeri, R. subcapitata, D. magna, read-out: EC50 values, range over the species tested). Besides, the “Hazard Ranking” value is on record as “** (Harmful: (<10 mg L^−1 ≤ 100 mg L^−1))” in the series with Daphnia magna; “** (Harmful: (<10 mg L^−1 ≤ 100 mg L^−1))” in the series with Raphidocelis subcapitata; “** (Harmful: (<10 mg L^−1 ≤ 100 mg L^−1))” in the series on Aliivibrio fischeri (GHS, from EC50 A. fischeri 30 min, this study). In addition, the inhibition at 50 µg/mL was ~65% in the series with Raphidocelis subcapitata (Raphidocelis subcapitata, R. subcapitata, 72 h, 50 mg L^−1) and ~63% in the series with Aliivibrio fischeri (Aliivibrio fischeri, 0.5 h, A. fischeri, 30 min, 50 mg L^−1). Also, the “mutagenicity (result in words)” value in series [7] is “non-positive mutagenicity”. The mutagenicity ratio in series [7] is recorded as < 2. Moreover, the “GHS classification (in words)” value in series [8] (EC50 values between 10 mg L^−1 and 100 mg L^−1) was “harmful”.

For `CC(C)(C)C(=O)C(Oc1ccc(Cl)cc1)n1ccnc1` (centres unmarked) [climbazole], the EC50 in the series on D. magna [2] (exposure time not printed ref 30) was 15.99 µg/mL (≈ 54.6 µM).

The inhibition is the relative decrease from the control value, in per cent.
